From patent EP0755382B1, “QUINOLONE DERIVATIVE FOR TREATMENT OF URINARY INCONTINENCE” (AstraZeneca AB, priority 1994, dated 1995)
One block for each compound: values may come before it.

Experiments:
[1] = system: guinea pig detrusor strips; experiment: second in vitro test: relaxation of guinea pig bladder detrusor strips contracted with 80 mM KCl; assay type: cell-based, guinea pigs; details: for potency in the second test compared with the first test: 80 mM KCl (second test) versus 15 mM KCl (first test)
Description: This second in vitro test is similar to the one described above with regard to tissue preparation and data acquisition. However, the following exceptions are noted. In this second test, the contraction of the detrusor strips during priming and after the equilibration period is achieved with 80 mM instead of 15 mM KCl (total concentration in the bath).
Typical calcium channel blockers like nifedipine, nimodipine, isradipine, and verapamil are able to relax and reduce the myogenic activity of guinea pig detrusor strips in both tests by virtue of their blocking action on calcium channels.

[2] = system: guinea pig detrusor strips; experiment: first in vitro test: relaxation of guinea pig bladder detrusor strips contracted with 15 mM KCl; assay type: cell-based, guinea pigs; details: Cavia porcellus
From the text: The actions of the compound as a smooth muscle relaxant useful as a therapeutic agent for the treatment of urinary incontinence through its action to open potassium channels and hyperpolarize the membrane potential in the bladder detrusor smooth muscle can be shown using suitably designed in vitro tests, such as the one described following. […] "IC50" is a well understood term and means the concentration of test compound which causes a 50% decrease in the in vitro contraction of the bladder tissue described in the following test.
Hale albino Hartley guinea pigs (450-500g) are sacrificed by carbon dioxide induced asphyxiation and quickly exsanguinated. The lower abdominal cavity is opened and the urinary bladder isolated. The bladder is cleaned of surrounding connective and adipose tissue, and the portion above the ureteral orifices is removed and washed in Krebs-Henseleit buffer solution of the following composition (in mH): NaCl 118.0, KCl 4.7, […] 1.2, KH2PO4 1.2, CaCl2 2.5, NaHCO3 25.0 and d-glucose 11.1. The solution is warmed to 37°C and gassed with 95% O2 and 5% CO2. […]
When the tissue relaxes to a steady state after the final washing, 15 mM KCl is again applied. […] The effect of the compound at each dose is expressed as % of the maximum inhibitory response, which is further normalized with respect to the corresponding effect of the compound vehicle control. […]

bladder = experiment: in vivo test in conscious catheterized rats: interval between bladder contractions, heart rate and MAP after oral dosing; parameters: species or system Wistar rats; details: dosed orally, 3 mg/kg
Description: Hale Wistar rats (400 - 500 g) are anesthetized with 50 mg/kg Nembutal, i.p. For each rat, the abdominal region and the front and back of the neck are shaved and povidone-iodine is applied to the skin. For carotid catheterization, the left carotid artery is exposed via a small ventral cervical incision. The exposed area is flushed with a 2% lidocaine HCl solution to relax the vessel. The catheter, filled with 0.9% saline, is introduced approximately 2.4 cm into the artery so that its tip resided in the aortic arch. The distal end of the catheter is exteriorized at the nape of the neck, filled with heparin (1000 units/ml) and heat sealed. For bladder catheterization, the bladder is exposed through a midline abdominal incision. […]
The rats are weighed, orally sham-dosed (dosing needle introduced, but no fluid expelled), and transvesical saline infusion (.18 ml/min) is begun and continued throughout the experiment. Variations in blood pressure, heart rate, intravesical pressure and urine output are recorded on either a Grass Polygraph or a Gould TA4000 recording system. […] At this point, a basal level of each experimental parameter is recorded and the rats are administered by oral gavage the appropriate dose of compound (in a 75% PEG 400 - saline vehicle) in concentrations such that the volume is 1 ml/kg body weight. […]

intestinal smooth muscle = details: Vitolinya et al, Khim.-Farm. Zh., 15(1), 39-42, 1981; cited from earlier work
urinary incontinence = details: preliminary clinical trial; Nurse et al., British Journal of Urology (1991), 68, 27-31; cited from earlier work

Compound: COc1ccc(Cc2nccc3cc(OC)c(OC)cc23)cc1OC [papaverine]
sustained tension after high KCl stimulation ([1]; 80 mM KCl, 300 µM): totally abolished

IC50 ([2]; concentration causing a 50% decrease in the in vitro contraction of the bladder tissue): 4.2 µM | IC50 ([1]; Cavia porcellus, second test, 80 mM KCl): 41.1 µM
Compound: N#Cc1cccc([C@@H]2C=C(C(F)(F)F)NC3=C2C(=O)CCC3)c1 [The compound, (S)-(-)-4-(3-Cyanophenyl)-2-trifluoromethyl-4,6,7,8-tetrahydro-5(1H)-quinolone]
activity and selectivity for the bladder (bladder): active and selective for the bladder without significant cardiovascular effects

Compound: COc1ccc(CCN(C)CCCC(C#N)(c2ccc(OC)c(OC)c2)C(C)C)cc1OC (centres unmarked) [verapamil]
potency in the second test compared with the first test [1]: more potent in the second test

Compound: CC1=C(C#N)C(c2ccccc2)C2=C(CC(C)(C)CC2=O)N1 (centres unmarked) [3-Cyano-4-phenyl-2,7,7-trimethyl-4,6,7,8-tetrahydro-5(1H)-quinolone]
effect on the cardiovascular system (intestinal smooth muscle): hypotensive properties | spasmogenic effect of acetylcholine and barium chloride on intestinal smooth muscle (intestinal smooth muscle): capable of blocking the spasmogenic effect

IC50 ([2]; first test): 0.6 to 0.9 µM
Compound: CC1(C)Oc2ccc(C#N)cc2C(N2CCCC2=O)C1O (centres unmarked) [cromakalim]
treatment of urinary incontinence (urinary incontinence): effective | relaxant activity ([1]; second test, 80 mM KCl, at concentrations as high as 30 µM): insignificant relaxant activity

Compound: COC(=O)C1=C(C)NC(C)=C(C(=O)OC(C)C)C1c1cccc2nonc12 (centres unmarked) [isradipine]
potency in the second test compared with the first test [1]: more potent in the second test
